Where two headings read alike, the source gives them in different places.
What was measured:
ABCG2 [1] = biological target: T1, ABCG2 (Homo sapiens, UniProt Q9UNQ0); experiment: [3H]-mitoxantrone accumulation in ABCG2-transduced MDCK-II cells (BCRP MDCK-II)
T1 sequence (Q9UNQ0 1-655): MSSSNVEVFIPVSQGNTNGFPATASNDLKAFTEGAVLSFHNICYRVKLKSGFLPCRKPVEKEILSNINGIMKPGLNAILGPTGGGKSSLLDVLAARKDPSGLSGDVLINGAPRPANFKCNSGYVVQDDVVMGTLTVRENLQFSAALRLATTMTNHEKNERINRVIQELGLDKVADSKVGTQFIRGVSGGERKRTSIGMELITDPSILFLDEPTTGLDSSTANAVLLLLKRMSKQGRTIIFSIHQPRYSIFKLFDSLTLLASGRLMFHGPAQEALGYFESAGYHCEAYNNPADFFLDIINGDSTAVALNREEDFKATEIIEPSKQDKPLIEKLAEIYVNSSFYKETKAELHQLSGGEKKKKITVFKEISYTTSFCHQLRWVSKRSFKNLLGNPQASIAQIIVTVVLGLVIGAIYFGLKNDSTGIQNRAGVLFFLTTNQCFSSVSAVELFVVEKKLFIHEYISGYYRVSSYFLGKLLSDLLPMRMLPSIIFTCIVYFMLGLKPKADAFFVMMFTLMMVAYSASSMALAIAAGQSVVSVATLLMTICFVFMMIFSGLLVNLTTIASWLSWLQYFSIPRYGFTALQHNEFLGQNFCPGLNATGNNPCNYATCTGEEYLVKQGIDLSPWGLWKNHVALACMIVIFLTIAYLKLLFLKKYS
Procedure: Methods: For constructing MDCK-II cells expressing human ABCG2 or green fluorescent protein (GFP), MDCK-II cells were infected with recombinant adenoviruses containing human ABCG2 or GFP cDNA at 48 h prior to the experiments. ABCG2 or GFP-transduced cells were preincubated in prewarmed transport buffer for 15 min. Subsequently, [^3H]-mitoxantrone (MTX) was added in transport buffer to apical compartments. Accumulation of radiolabeled substrates was allowed for 2 h at 37° C. with or without an appropriate concentration of pharmaceutical excipients, 20 μM of GF120918 or 5 μM of PSC833. The reactions were arrested by washing cells with ice-cold transport buffer. Cells were solubilized and then the lysates were transferred to a liquid scintillation counter for measurement of radioactivity.
To abolish the influence of endogenous P-gp, PSC833 (P-gp inhibitor) was added during the incubation for 2 h, except that in the samples treated with GF120918 (a shared ABCG2 and P-gp inhibitor) no PSC833 was added.
The inhibitory effect of excipients on ABCG2 was further characterized in an intracellular accumulation study. MDCK-II cells overexpressing ABCG2 (BCRP MDCK-II) and, as controls, MDCK-II cells overexpressing green fluorescence protein (GFP) (GFP MDCK-II) were prepared. Mitoxantrone was used as the substrate. Intracellular mitoxantrone accumulation in the presence or absence of excipients was determined.
To discover the excipients that can inhibit ABCG2, we performed an intracellular accumulation study using BCRP MDCK-II and GFP MDCK-II cells in the absence or presence of excipients. Mitoxantrone was used as the substrate. To abolish the effect of endogenous P-gp, this experiment was performed in the presence of PSC833. […] All of the excipients were used below their cmc, because above their cmc, excipients form micelles that can interact with the substrate, and as a consequence the effective concentration of mitoxantrone in the experimental medium can decrease.

GFP MDCK-II cells = experiment: [3H]-mitoxantrone accumulation in GFP-transduced MDCK-II control cells; format: cell-based
ABCG2 [2] = biological target: T1, ABCG2
Procedure: (§6) Measurement of the uptake of [^3H]-estrone-3-sulfate (E1S) was carried out for 11 pharmaceutical excipients at or near their reported critical micelle concentrations using ABCG2-expressing membrane vesicles.
(§7) Eleven of the pharmaceutical excipients of Table 2 were examined for effect on ABCG2 function at their cmc. The inhibitory mechanism of ABCG2 inhibition by pharmaceutical excipients was also investigated. […] The uptake of E1S into these membrane vesicles was examined in the presence and absence of the first eleven excipients of Table 2.
(§8) The IC50 values for these excipients, and their mode of inhibitory action for the function of ABCG2 were evaluated and determined.
(§9) Km and Vmax were calculated for ABCG2 inhibition by excipients at a concentration near the IC50 values. Then, their values were compared to those obtained in the absence of excipient. […] Results are the means±SE (n=3).

[3] = reported in literature; cited from earlier work
[4] = critical micelle concentration by surface tension in a transport buffer; format: physicochemical
Source text: The critical micelle concentration can be measured by a surface tension method,-e.g. using a Tensiometer, or other methods known in the art. Any suitable method known in the art can be used to measure the cmc. In a particular embodiment ASTM D 971 REV A is used.
Therefore, we determined the cmc of the 11 excipients used above, and others, by measuring surface tension in a transport buffer. […] The concentration beyond which there was no further change in surface tension was taken as the cmc.

P-gp = P-gp (Homo sapiens, UniProt P08183); experiment: mitoxantrone accumulation in P-gp MDCK-II cells
P-gp, sequence (P08183 whole entry): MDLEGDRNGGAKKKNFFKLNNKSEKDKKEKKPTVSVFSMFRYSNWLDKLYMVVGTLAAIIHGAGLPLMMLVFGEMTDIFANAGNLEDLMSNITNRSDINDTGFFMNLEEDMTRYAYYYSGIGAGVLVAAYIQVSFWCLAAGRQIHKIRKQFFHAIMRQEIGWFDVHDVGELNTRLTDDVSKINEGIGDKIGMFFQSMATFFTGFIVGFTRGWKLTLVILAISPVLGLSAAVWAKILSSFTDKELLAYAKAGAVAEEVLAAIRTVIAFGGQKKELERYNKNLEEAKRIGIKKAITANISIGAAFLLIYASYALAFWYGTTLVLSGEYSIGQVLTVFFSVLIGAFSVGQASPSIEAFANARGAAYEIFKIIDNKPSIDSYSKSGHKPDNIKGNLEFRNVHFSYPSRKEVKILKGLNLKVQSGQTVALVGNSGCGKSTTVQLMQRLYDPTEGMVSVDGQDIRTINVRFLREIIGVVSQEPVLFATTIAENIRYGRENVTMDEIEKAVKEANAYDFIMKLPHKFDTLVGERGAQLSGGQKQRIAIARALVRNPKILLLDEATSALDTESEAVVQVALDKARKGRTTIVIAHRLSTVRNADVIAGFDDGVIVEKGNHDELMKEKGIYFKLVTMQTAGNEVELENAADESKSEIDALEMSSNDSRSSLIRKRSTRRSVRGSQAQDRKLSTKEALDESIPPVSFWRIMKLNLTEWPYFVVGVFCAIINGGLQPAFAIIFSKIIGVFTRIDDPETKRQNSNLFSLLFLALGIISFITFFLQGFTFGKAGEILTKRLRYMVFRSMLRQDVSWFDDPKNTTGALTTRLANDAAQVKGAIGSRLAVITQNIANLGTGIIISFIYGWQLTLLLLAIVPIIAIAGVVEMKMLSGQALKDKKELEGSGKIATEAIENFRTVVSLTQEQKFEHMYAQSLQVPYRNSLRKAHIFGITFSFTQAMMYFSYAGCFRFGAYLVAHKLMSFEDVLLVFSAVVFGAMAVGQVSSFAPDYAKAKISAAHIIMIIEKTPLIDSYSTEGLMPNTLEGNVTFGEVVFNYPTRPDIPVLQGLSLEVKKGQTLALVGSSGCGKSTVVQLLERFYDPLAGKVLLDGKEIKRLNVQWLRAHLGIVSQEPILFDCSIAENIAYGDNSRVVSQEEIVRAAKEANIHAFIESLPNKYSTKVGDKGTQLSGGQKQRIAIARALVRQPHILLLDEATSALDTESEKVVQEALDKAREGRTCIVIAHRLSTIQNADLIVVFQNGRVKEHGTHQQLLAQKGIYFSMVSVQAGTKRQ
Source text: Moreover, to investigate the inhibitory effect of excipients on P-gp, we also performed an intracellular accumulation study for 15 excipients using P-gp MDCK-II cells. Mitoxantrone was again used as the substrate.

ABCG2 [5] = biological target: T1, ABCG2; experiment: [3H]-estrone-3-sulfate (E1S) uptake into ABCG2-expressing membrane vesicles from HEK293 cells
Procedure: as §6, §7, §8, §9

[6] = mouse, in vivo
Procedure: (§1) Topotecan (1 mg/kg) was administered orally to wild-type and female bcrp1 KO mice. We then determined the plasma concentration of topotecan as a function of time (FIG. 9).
(§2) We then determined the plasma concentration of topotecan as a function of time.
(§3) Topotecan was also administered intravenously, for comparison. […] We then determined the plasma concentration of topotecan as a function of time.
(§4) The dose of topotecan was 1000 μg/kg of body weight.
(§5) The product of Fa and Fg is presystemic bioavailability for drugs not further metabolized in the liver. […] We determined Fa*Fg using Eh=CLTOT,BLOOD/Qh where Qh is 5.4 (L/h/kg). The fold change relative to wild type control is also presented.

[7] = ratio of topotecan concentration in blood to plasma; details: mouse, blood and plasma; mice; read-out: RB, ratio of topotecan concentration in blood to plasma
[8] = mouse, in vivo; remark: listed apart in the source
Procedure: as §1, §2, §3, §4, §5

GFP/MDCK II cells = experiment: intracellular ATP level, luciferin/luciferase assay, GFP/MDCK II cells; format: cell-based; details: sodium azide 100 mM; P85 copolymer 20 μM; polysorbate 20 250 μM; polyoxyl 35 castor oil 50 μM; sorbitan monolaurate 100 μM; lauryl PEG ether 100 μM; n=3

COc1cc2c(cc1OC)CN(CCc1ccc(NC(=O)c3cccc4c(=O)c5cccc(OC)c5[nH]c34)cc1)CC2 [GF120918]
initial accumulation of mitoxantrone, BCRP versus GFP MDCK-II cells (ABCG2 [1]): no significant difference | accumulation of MTX in ABCG2-transduced cells compared to control (ABCG2 [1]; human, 2 h, 20 μM): 1.4 times | accumulation of MTX in GFP-transduced cells (in words) (GFP MDCK-II cells; Example 1, 20 μM GF120918, 2 h): no consistent effect

CCCCCCCCCCCCO[C@@H]1O[C@H](CO)[C@@H](O[C@H]2O[C@H](CO)[C@@H](O)[C@H](O)[C@H]2O)[C@H](O)[C@H]1O [LM, n-dodecyl-β-D-maltopyranoside]
effect on ABCG2-mediated E1S uptake into vesicles (in words) (ABCG2 [2]): less or no effect | Reference cmc [3]: 170 µM | Measured cmc [4]: 688 µM

C/C=C/C[C@@H](C)C(=O)[C@H]1C(=O)N[C@@H](C(C)C)C(=O)N(C)CC(=O)N(C)[C@@H](CC(C)C)C(=O)N[C@@H](C(C)C)C(=O)N(C)[C@@H](CC(C)C)C(=O)N[C@@H](C)C(=O)N[C@H](C)C(=O)N(C)[C@@H](CC(C)C)C(=O)N(C)[C@@H](CC(C)C)C(=O)N(C)[C@@H](C(C)C)C(=O)N1C [PSC833]
mitoxantrone accumulation in P-gp MDCK-II (P-gp; 1 hr (printed 'I hr')): markedly increased | mitoxantrone accumulation in P-gp MDCK-II cells (in words) (P-gp; Example 7): markedly reversed | initial accumulation of mitoxantrone in P-gp MDCK-II cells (P-gp; initial 5 min): significantly increased | mitoxantrone accumulation in GFP MDCK-II cells (in words) (GFP MDCK-II cells; Example 7, P-gp study, endogenous P-gp): reversed | initial accumulation of mitoxantrone in GFP MDCK-II cells (GFP MDCK-II cells; initial time course): slightly increased

CCCCCCCCCCCCOCCOCCOCCOCCO [Polyoxyl 4 lauryl ether, Lauryl polyethylene glycol ether]
IC50 (ABCG2 [5]): 77.5 ± 4.1 µM

CC[C@@]1(O)C(=O)OCc2c1cc1n(c2=O)Cc2cc3c(CN(C)C)c(O)ccc3nc2-1 [topotecan]
Eh of topotecan [6]: 0.37 | F of topotecan [6]: 0.12 | Fa × Fg of topotecan [6]: 0.19 | Fh of topotecan [6]: 0.63 | CLtot,plasma of topotecan ([6]; po, 1000 ug/kg): 333 mL/min/kg | blood plasma ratio [7]: 1.2 | Eh of topotecan [8]: 0.22 | F of topotecan [8]: 0.27 | Fa × Fg of topotecan [8]: 0.35 | Fh of topotecan [8]: 0.78 | Fold Change of Fa × Fg relative to wild type control [8]: 1.8 | CLtot,plasma of topotecan ([8]; po, 1000 ug/kg): 86.7 mL/min/kg

Polyoxyethyleneglyceroltrihydroxystearate [Polyoxyl 40 hydrogenated castor oil]
mitoxantrone accumulation in P-gp MDCK-II cells (in words) (P-gp): increased

Polyoxyethyleneglyceroltriricinoleate 35 [Polyoxyl 35 castor oil]
mitoxantrone accumulation in P-gp MDCK-II cells (in words) (P-gp): increased

Polyoxyethylenesorbitan monolaurate
mitoxantrone accumulation in P-gp MDCK-II cells (in words) (P-gp): increased

Polyoxyethylenesorbitan monooleate
mitoxantrone accumulation in P-gp MDCK-II cells (in words) (P-gp): increased | inhibition of ABCG2 in the intact cell assay (ABCG2 [1]): did not inhibit ABCG2

Sorbitan monolaurate
mitoxantrone accumulation in P-gp MDCK-II cells (in words) (P-gp; Example 7): increased | mitoxantrone accumulation in BCRP MDCK-II cells (in words) (ABCG2 [1]; Example 7, excipients below their cmc, in the presence of PSC833): significantly increased | intracellular ATP, GFP/MDCK II (GFP/MDCK II cells): 132.8 ± 3.6 nmol/mg protein | Reference cmc [3]: 100 µM

Sorbitan monooleate
Reference cmc [3]: 100 µM

Sorbitan monopalmitate
Reference cmc [3]: 200 µM
